{
  "source": "patent US8425997B2",
  "about": "“Cobalt bearing polymeric compositions” (Umicore, priority 2008, dated 2013)",
  "experiment": "Aqueous solubility (leaching) of Co, OECD-105 flask method",
  "assay_type": "physicochemical",
  "method": "Experiments are performed to determine the aqueous solubility of the Co in the invented polymers. These tests are relevant as indicators for the bioavailability of Co.\n[…] The leaching tests are conducted according to the OECD-105 standard flask method, as described in the OECD Guideline for the Testing of Chemicals, adopted on 27 Jul. 1995, and in the Official Journal of the European Communities L 383 A, 54-62 (1992).\nThe solubility of 3 typical polymers according to the invention is compared to that of 3 commercial products.",
  "data": [
    {"substance": "Co-acetylacetonate", "values": [
      {"measurement": "Solubility of Co in 0.9% NaCl solution, Co", "setting": "solvent: 0.9% NaCl", "value": 1400, "unit": "µg/mL"},
      {"measurement": "Solubility of Co in water, Co", "setting": "solvent: water", "value": 1600, "unit": "µg/mL"}
    ]}
  ]
}
